From patent US20240165226A1, “COMBINATION TREATMENT OF CD38-EXPRESSING TUMORS” (GENMAB A/S, priority 2006, published 2024)

System: Daudi-luc tumor cells
Test: In vivo SCID-luciferase experiments
Set-up: species or system SCID mice
Text: In this model tumor cells are transfected with firefly luciferase. Upon administration of luciferin (Molecular Probes, Leiden, The Netherlands) to the mice the labeled cells can be detected in vivo by bioluminescent imaging using a highly sensitive CCD camera, cf. Wetterwald et al., American Journal of Pathology 160(3), 1143-1153 (2002).
Daudi cells were transfected with gWIZ luciferase from Gene Therapy Systems (San Diego, CA) and cultured in RPMI with 10% FCS, Pen/Strep, Sodium Pyruvate and 1 μg/ml puromycin (Sigma). Cells were analysed for luciferase expression (expressed in RLU/1×10^5 cells) in a luminometer and for CD38 expression by FACS. 2.5×10^6 luciferase-transfected Daudi cells/mouse were injected i.v. into SCID mice. Mice were treated with -003, -005, isotype control antibody (HuMab-KLH) or rituximab (anti-CD20 antibody). Antibodies were injected intraperitoneally. Four treatment settings were used (see Table 4). In the preventive setting, antibody (100 μg/mouse) and cells were administered simultaneously. In therapeutic setting I, antibody (300 μg/mouse) was administered 7 days after administration of cells. In therapeutic setting II, antibody (10 μg/mouse) was administered 14 days after administration of cells. In therapeutic setting III, antibody (100 μg/mouse) was administered 7 days after administration of cells. For imaging, mice were anesthetized by i.p. injection of a mixture of ketamine/xylazine/atropine. Synthetic D-Luciferin (sodium salt, Molecular Probes) was given i.p. at a dose of 25 mg/ml. Mice were then placed in a light tight box and after 3 min, imaging was started using a VersArray 1300B liquid nitrogen cooled CCD detector (Roper Scientific). Photons emitted from the luciferase were counted over an exposure period of 5 min. Under illumination black and white images were made for reference. MetaVue software (Universal Imaging Corp) was used for data collection and image analysis. Statistical significance of differences between groups was established using one-way analysis of variance with a Newman-Keuls post test using GraphPad PRISM version 3.02 (Graphpad Software Inc).

rituximab [anti-CD20 antibody, reference compound]
inhibition of growth of tumor cells (preventive setting, 100 μg/mouse, day 0, i.p.): inhibition observed | inhibition of growth of tumor cells (therapeutic setting I, 300 μg/mouse, day 7, i.p.): inhibition observed
